3 compounds from patent US4335249A, “Herbicidal diphenyl ethers, sulfides, sulfoxides and sulfones” (Rohm and Haas Company, priority 1976, dated 1982) can be followed below.

Holding throughout (assay type): in vivo
The test system of assay [1] is downybrome (Bromus tectorum). Put plainly: Postemergence herbicidal activity, downybrome. The settings on record: Bromus tectorum, post-emergence, 336 h, Post, 2 lb/A. In outline:
(§1)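 For postemergence testing, seedlings grow two weeks in soil flats before spraying; for preemergence testing, flats are sprayed just after sowing. Application uses acetone stock diluted in water, 50 gal/acre carrier volume, stated lb/A rate. Control recorded as mean percent killed roughly two weeks later.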

Assay [2] deals with marigold (Tagetes spp.). Put plainly: Postemergence herbicidal activity, marigold. The settings on record: post-emergence, 336 h, 2 lb/A. A digest of the protocol: as §1
Assay [3] deals with wild oats (Avena fatua). Kind of assay: Postemergence herbicidal activity, wild oats. The conditions noted are these: Avena fatua, post-emergence, 336 h, Post, 2 lb/A; read-out: % control, Wild oat. A digest of the protocol:
as §1

Assay [4] concerns velvetleaf (Abutilon theophrasti). Kind of assay: Preemergence herbicidal activity, velvetleaf. The settings on record: Abutilon theophrasti, pre-emergence, 336 h; Pre, 2 lb/A. In outline: as §1
For assay [5], the system named is tomato (Lycopersicon esculentum). Put plainly: Preemergence herbicidal activity, tomato. The settings on record: Solanum lycopersicum, pre-emergence, 336 h; Pre, 2 lb/A. In outline: as §1
The test system of assay [6] is wild oats (Avena fatua). Kind of assay: Preemergence herbicidal activity, wild oats. The settings on record: Avena fatua, pre-emergence, 336 h, Pre, 2 lb/A; read-out: % control, Wild oat. In outline: as §1
The subject of assay [7] is barnyardgrass (Echinochloa crusgalli). Put plainly: Postemergence herbicidal activity, barnyardgrass. The conditions noted are these: Echinochloa crus-galli, post-emergence, 336 h; Post, 2 lb/A. In outline:
(§2)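 Control of the weed species is the read-out, following spray application at a given rate in lb/A. Flats of seeded soil received treatment either directly upon planting or, for postemergence, two weeks after seedlings emerged. Spray carrier was aqueous acetone at 50 gallons per acre equivalent.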

Assay [8] deals with foxtail (Setaria spp.). Put plainly: Postemergence herbicidal activity, foxtail. The settings on record: Setaria, post-emergence, 336 h, Post, 2 lb/A. A digest of the protocol: as §1
Assay [9] deals with morningglory (Ipomoca spp.). Put plainly: Postemergence herbicidal activity, morningglory. The conditions noted are these: Ipomoea, post-emergence, 336 h, 2 lb/A. A digest of the protocol:
as §1

Assay [10] concerns velvetleaf (Abutilon theophrasti). Put plainly: Postemergence herbicidal activity, velvetleaf. The conditions noted are these: Abutilon theophrasti, post-emergence, 336 h, 2 lb/A. A digest of the protocol: as §2
Assay [11] deals with cocklebur (Xanthium pensylvanicum). Kind of assay: Preemergence herbicidal activity, cocklebur. The settings on record: Xanthium strumarium, pre-emergence, 336 h, 2 lb/A. In outline:
as §1

The subject of assay [12] is morningglory (Ipomoca spp.). Kind of assay: Preemergence herbicidal activity, morningglory. The conditions noted are these: Ipomoea, pre-emergence, 336 h, 2 lb/A. In outline: as §1
Assay [13] has as its system barnyardgrass (Echinochloa crusgalli). Put plainly: Preemergence herbicidal activity, barnyardgrass. The conditions noted are these: Echinochloa crus-galli, pre-emergence, 336 h; Pre, 2 lb/A. A digest of the protocol:
as §2

Assay [14] has as its system downybrome (Bromus tectorum). Kind of assay: Preemergence herbicidal activity, downybrome. The conditions noted are these: Bromus tectorum, pre-emergence, 336 h, Pre, 2 lb/A. In outline: as §1
The test system of assay [15] is yellow nutsedge (Cyperus esculentus). Kind of assay: Preemergence herbicidal activity, yellow nutsedge. The conditions noted are these: Cyperus, pre-emergence, 336 h, 2 lb/A. In outline: as §1
The test system of assay [16] is foxtail (Setaria spp.). Put plainly: Preemergence herbicidal activity, foxtail. The conditions noted are these: Setaria, pre-emergence, 336 h; Pre, 2 lb/A. In outline: as §1
Assay [17] has as its system cocklebur (Xanthium pensylvanicum). Kind of assay: Postemergence herbicidal activity, cocklebur. The settings on record: Xanthium strumarium, post-emergence, 336 h, 2 lb/A. A digest of the protocol: as §1
Assay [18] relates to yellow nutsedge (Cyperus esculentus). Kind of assay: Postemergence herbicidal activity, yellow nutsedge. The conditions noted are these: Cyperus, post-emergence, 336 h, 2 lb/A. In outline:
as §1

The subject of assay [19] is tomato (Lycopersicon esculentum). Kind of assay: Postemergence herbicidal activity, tomato. The conditions noted are these: Solanum lycopersicum, post-emergence, 336 h, Post, 2 lb/A. A digest of the protocol:
as §1

Assay [20] has as its system marigold (Tagetes spp.). Kind of assay: Preemergence herbicidal activity, marigold. The conditions noted are these: pre-emergence, 336 h, 2 lb/A. A digest of the protocol:
as §1

Turning to `CCCCOC(=O)C(C)Oc1ccc(Oc2ccc(C(F)(F)F)cc2Cl)cc1` (stereo not drawn) [Example 23], the pest or weed control at 2241.7 g/ha in assay [1] was determined as 99%; with marigold (Tagetes spp.) [2], 30%; in the assay with wild oats (Avena fatua) [3], 100%; in assay [4], 0%; in assay [5], 0%; in the assay with wild oats (Avena fatua) [6], 80%. Moreover, the pest or weed control at 2241.7 g/ha in assay [7] was 100%; with foxtail (Setaria spp.) [8] it was 100%; in [9] it was 20%; in assay [10] it was 40%; in assay [11], 0%; in assay [12], 0%. In addition, the pest or weed control at 2241.7 g/ha was 100% in assay [13]; 99% in assay [14]; 30% in assay [15]; 100% in the assay with foxtail (Setaria spp.) [16]; 0% in [17]; 0% in [18]. In addition, the pest or weed control at 2241.7 g/ha in assay [19] is 99%; in the assay with marigold (Tagetes spp.) [20] it was 0%.
With `C=CCOC(=O)C(C)Oc1ccc(Oc2ccc(C(F)(F)F)cc2Cl)cc1` (stereo not drawn) [Example 24], the pest or weed control at 2241.7 g/ha is 100% in assay [1]; 50% in the assay on marigold (Tagetes spp.) [2]; 100% in the assay with wild oats (Avena fatua) [3]; 0% in [4]; 0% in [5]; 80% in the assay on wild oats (Avena fatua) [6]. For the same compound, the pest or weed control at 2241.7 g/ha in assay [7] was 100%; in the assay with foxtail (Setaria spp.) [8], 100%; in assay [9], 20%; in [10] it was 80%; in assay [11], 100%; in assay [12] it was 0%. Besides, the pest or weed control at 2241.7 g/ha in assay [13] came out at 100%; in assay [14], 99%; in assay [15], 30%; in the assay on foxtail (Setaria spp.) [16], 100%; in [17], 20%; in [18], 0%. In addition, the pest or weed control at 2241.7 g/ha in assay [19] is 95%; in the assay on marigold (Tagetes spp.) [20], 0%.
On to `COCCOC(=O)C(C)Oc1ccc(Oc2ccc(C(F)(F)F)cc2Cl)cc1` (stereo not drawn) [Example 25], for which the pest or weed control at 2241.7 g/ha in assay [1] came to 80%; with marigold (Tagetes spp.) [2], 30%; in the assay on wild oats (Avena fatua) [3], 100%; in assay [4], 0%; in assay [5] it was 0%; in the assay with wild oats (Avena fatua) [6] it was 70%. Also, the pest or weed control at 2241.7 g/ha was 100% in assay [7]; 100% with foxtail (Setaria spp.) [8]; 40% in [9]; 60% in assay [10]; 0% in assay [11]; 0% in assay [12]. For the same compound, the pest or weed control at 2241.7 g/ha was 100% in assay [13]; 95% in [14]; 30% in [15]; 100% with foxtail (Setaria spp.) [16]; 20% in [17]; 40% in assay [18]. The pest or weed control at 2241.7 g/ha in assay [19] came to 95%; in the assay on marigold (Tagetes spp.) [20] it was 0%.
